Data: patent US20100075907A1, “NEUROMEDIN U RECEPTOR AGONISTS AND USES THEREOF” (priority 2006, published 2010)
Non-standard residues stand in square brackets, D forms with d. Residues, ends and D or L forms follow the SMILES beside them. No end group written: not given here. *: point of attachment. X1 = CC(C)CCC[C@@H](C)[C@H]1CC[C@H]2[C@@H]3CC=C4C[C@@H](OC(=O)C*)CC[C@]4(C)[C@H]3CC[C@]12C; Succinimide(1-Et,3-yl) = CCN1C(=O)CC(*)C1=O; hArg = N=C(N)NCCCC[C@H](N)C(=O)O; dNle = CCCC[C@@H](N)C(=O)O

Tests used:
hNMUR2 [1] = molecular target: T1, hNMUR2 (Homo sapiens, UniProt Q9GZQ4); assay: 125I-hNMU-25 binding assay, human NMUR2 membranes; parameters: expressed in transfected cells; host or cells: HEK-293 FLP-In cells (pcDNA5); HEK-293/aeq17 lines (pcDNA3.1) were also made; % inhibition of NMU-25 binding / % Activity: concentration or dose not given beside the values
Description: Confluent cell monolayers expressing NMU receptors (the HEK cells described above) were harvested with phosphate buffered saline, collected by centrifugation, and resuspended in membrane buffer (50 mM TrisCl pH 7.4, 5 mM MgCl2, 1× Protease Inhibitor Cocktail, 10 μM phosphoramidon). After the cell pellet was homogenized, the solution was centrifuged at 18,000 rpm for 20 minutes at 4° C. The pellet was resuspended in membrane buffer to yield a final concentration of 0.5-5 μg/μL of membrane and stored at −80° C.
Experiments were performed in assay buffer (25 mM TrisCl, pH 7.4, 10 mM MgCl2, 2 mM EDTA, 1× Protease Inhibitor Cocktail, 100 μg/mL Bacitricin, 10 μM phosphoramidon) in 200 μL volumes in a 96-well format using 2-5 μg of membrane and 0.1 nM ^125I-hNMU-25 (about 12,000 cpm/well). For non-specific binding, 1 μM hNMU-25 was added. About 5 μL of peptides were added to measure antagonist activity, and the entire reaction was incubated at room temperature with shaking for 80 minutes. The reaction was terminated by rapid filtration through 0.3% poly-ethylenimine presoaked Millipore 96-well filter plates and washed with ice-cold buffer (5 mM TrisCl pH 7.4, 10 mM MgCl2, 2.5 mM EDTA, 0.04% Triton X-100). Plates were air-dried overnight at room temperature and recovered radioactivity was determined by standard scintillation counting. IC50 values were determined using GraphPad Prism software.
Concentration-response curves and radioligand-binding data were fitted using Prism (GraphPad Software). Results are summarized below in Tables 8 and 9.

hNMUR2 [2] = molecular target: T1, hNMUR2; assay: In vitro functional assay, HEK-hR2 cells; type: cell-based; parameters: expressed in transfected cells; host or cells: FLP-In CHO or HEK-293 FLP-In cells (pcDNA5); HEK-293/aeq17 lines (pcDNA3.1) were also made; % Activity: concentration or dose not given beside the values
Description: (§1) Human, mouse or rat cDNAs encoding NMUR1 or NMUR2 (as described in Howard et al. Nature 406: 70-74 (2000) were subcloned in pcDNA5 (Invitrogen) and transfected into FLP-In CHO cells and HEK-293 FLP-In cells purchased from Invitrogen (Carlsbad, Calif.) using lipofectamine (Invitrogen). The Flp-In system allows integration and expression of a particular gene of interest at a specific genomic location utilizing the Flp recombinase from yeast. The transfected cells were selected by growth in medium containing 200 μg/mL hygromycin (Invitrogen). Populations were frozen at early passage numbers, and these stocks were used for further studies. Stable clones that expressed the mRNAs were identified functionally by FLIPR as well as by RT-PCR. […] Two different rodent NMUR1 cell lines were thus generated: one with the codon as predicted from the genomic databases and another cell line with an engineered methionine (ATG) as the start codon. Additionally, stable cell lines expressing the human receptors were generated in HEK-293/aeq17 cells which stably express the aequorin gene under the CMV promoter. The human NMUR2 cDNA was cloned into pcDNA3.1 and human NMUR1 was subcloned into pIRES-puro (Clontech, Mountain View, Calif.), after transfection cells were selected in media containing G418 and either hygromycin (NMUR2) or puromycin (NMUR1).
(§2) The NMU receptors signal primarily through Gαq/11 proteins; therefore calcium mobilization assays can be utilized for functional activity.
(§3) Stable cell lines expressing human and or rodent NMUR1 or human NMUR2 receptors were plated at a density of 12,000 cells per well overnight on poly-lysine coated 384-well black-walled plates. The following day, the media was removed from the plates and the cells were subsequently loaded with Fluo-3 (Molecular Probes), a calcium sensitive dye, diluted in FLIPR buffer (1× Hank's buffered saline containing 20 mM HEPES, 0.1% BSA, 2.5 mM probenecid (Sigma) and 1.6 mM TR40). All reagents are from Invitrogen unless otherwise noted. Peptide stocks were resuspended in DMSO at a stock concentration of 2 mM and diluted in FLIPR buffer on the day of the experiment to a 4 μM working stock solution.
(§4) After a 90 minute incubation at room-temperature, cell plates were loaded onto a FLIPR (Molecular Devices) to monitor cellular fluorescence (excitation=488 nm; emission=540 nm) before and after compound/peptide addition. Eight to twelve point dose responses were tested on NMUR-expressing cell lines using FLIPR with 1 μM peptide as the highest dose. The response after peptide addition was taken as the maximum fluorescence units minus the fluorescence immediately prior to stimulation for each well. EC50 values were calculated using GraphPad Prism (San Diego, Calif.) software.
In addition to FLIPR, NMU receptor function can also be evaluated using an aequorin assay. Stable cell lines expressing the aequorin jelly fish gene can be used to report the activation of GPCRs by monitoring intracellular calcium mobilization. The objective is to identify compounds which specifically stimulate aequorin bioluminescence. Calcium-dependent luminescence is generated by the treatment of cells with the coelenterate luciferin, coelenterazine. Briefly, confluent monolayers of HEK-293/aeq 17 cells expressing hNMUR1 or hNMUR2 are “charged” with coelenterazine (Molecular Probes, Carlsbad, Calif.). Confluent T75 flasks are rinsed with media containing 300 μM glutathione and 0.1% FBS. Cells are incubated at 37° C. for one hour in 8 mL media, 0.1% FBS, 300 μM glutathione, and 20 μM coelenterazine. T75 flasks are subsequently rinsed with 6 mL ECB buffer (140 mM NaCl, 20 mM KCl, 20 mM HEPES, 5 mM glucose, 1 mM MgCl, 1 mM CaCl2, 0.1 mg/mL BSA, PH 7.3-7.4). Cells are removed from the flask in ECB buffer, pelleted, and resuspended at a density of 2×10^5 cells/mL. Agonists are added to the cells and activity is determined using a luminometer.

mouse NMUR2 = mouse NMUR2 (Mus musculus, UniProt Q8BZ39); assay: FLIPR calcium mobilization assay, mouse NMUR2; type: cell-based; parameters: expressed in transfected cells; host or cells: FLP-In CHO or HEK-293 FLP-In cells (pcDNA5); details: maximum response at 1 μM compared to hNMU-25; mouse NMUR2
Description: as §1, §2, §3, §4
In vitro responses of Neuromedin U receptor agonists (NMU1 to NMU25) in the FLIPR assay for human (Table 3), mouse (Table 4) and rat (Table 5) NMUR1 and NMUR2. EC50s are reported in nM values. Percent activity refers to the maximum response at 1 μM compared to the hNMU-25 response at the same concentration. NT=not tested.

T1 sequence (Q9GZQ4 whole entry): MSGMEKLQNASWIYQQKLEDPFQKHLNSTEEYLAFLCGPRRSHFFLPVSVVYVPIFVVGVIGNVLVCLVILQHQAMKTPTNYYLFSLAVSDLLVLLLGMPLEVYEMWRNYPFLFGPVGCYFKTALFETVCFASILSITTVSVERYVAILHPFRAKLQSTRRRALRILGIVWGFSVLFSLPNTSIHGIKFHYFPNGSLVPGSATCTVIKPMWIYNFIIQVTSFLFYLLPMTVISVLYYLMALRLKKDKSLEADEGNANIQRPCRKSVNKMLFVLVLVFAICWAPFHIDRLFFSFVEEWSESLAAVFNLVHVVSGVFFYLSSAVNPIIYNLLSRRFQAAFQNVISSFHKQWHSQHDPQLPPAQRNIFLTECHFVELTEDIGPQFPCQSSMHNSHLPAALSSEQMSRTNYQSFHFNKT
Chain of mouse NMUR2 (Q8BZ39 whole entry): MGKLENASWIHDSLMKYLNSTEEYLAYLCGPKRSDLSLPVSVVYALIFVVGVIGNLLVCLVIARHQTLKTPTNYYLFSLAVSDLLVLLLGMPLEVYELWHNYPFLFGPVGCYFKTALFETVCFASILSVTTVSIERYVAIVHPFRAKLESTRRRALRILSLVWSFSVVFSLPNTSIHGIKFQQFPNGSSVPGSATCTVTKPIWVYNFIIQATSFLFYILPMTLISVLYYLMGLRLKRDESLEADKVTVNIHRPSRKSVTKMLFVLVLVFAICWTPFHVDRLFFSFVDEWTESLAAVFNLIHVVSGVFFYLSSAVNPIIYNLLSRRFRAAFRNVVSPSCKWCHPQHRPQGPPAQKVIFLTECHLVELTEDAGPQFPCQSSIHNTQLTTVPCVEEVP

Row | Molecule | % Activity (hNMUR2 [1]; Table 9, HEK-hR2, binding) [%] | % Activity (hNMUR2 [2]; Table 9, HEK-hR2, functional) [%] | % Activity (hNMUR2 [1]; Table 8, HEK-hR2, binding) [%] | % Activity (hNMUR2 [2]; Table 8, HEK-hR2, functional) [%] | IC50 (hNMUR2 [2]; Table 8, HEK-hR2, functional) [nM] | other results
1 | CC(C)C[C@H](NC(=O)[C@H](Cc1c[nH]c2ccccc12)NC(=O)[C@H](Cc1ccccc1)NC(=O)CNC(=O)[C@H](CCCNC(=N)N)NC(=O)[C@H](CO)NC(=O)[C@H](CCC(N)=O)NC(=O)[C@H](CO)NC(=O)[C@H](C)NC(=O)[C@H](Cc1ccccc1)NC(=O)[C@@H]1CCCN1C(=O)[C@H](CO)NC(=O)[C@H](CCC(N)=O)NC(=O)[C@H](Cc1ccccc1)NC(=O)[C@H](CCC(=O)O)NC(=O)[C@H](CCC(=O)O)NC(=O)[C@H](CC(=O)O)NC(=O)[C@@H](NC(=O)[C@H](CCCNC(=N)N)NC(=O)[C@@H](N)Cc1ccccc1)C(C)C)C(=O)N[C@@H](Cc1ccccc1)C(=O)N[C@@H](CCCNC(=N)N)C(=O)N[C@@H](C)C(=O)N[C@@H](CCCCNC(=N)N)C(=O)N[C@@H](CC(N)=O)C(N)=O [Agonist P] (H-FRVDEEFQSPFASQSRGFWLFRA[hArg]N-NH2; N-terminus assumed) | 81 | 100 | – | – | – | IC50 (hNMUR2 [1]; Table 9, HEK-hR2, binding): 150 nM
2 | CCCC[C@@H](NC(=O)[C@H](CCCNC(=N)N)NC(=O)[C@@H]1CCCN1C(=O)[C@H](CCCNC(=N)N)NC(=O)[C@H](Cc1ccccc1)NC(=O)[C@H](CC(C)C)NC(=O)[C@H](Cc1c[nH]c2ccccc12)NC(=O)[C@H](Cc1ccccc1)NC(=O)CNC(=O)[C@H](CCCNC(=N)N)NC(=O)[C@H](CO)NC(=O)[C@H](CCC(N)=O)NC(=O)[C@H](CO)NC(=O)[C@H](C)NC(=O)[C@H](Cc1ccccc1)NC(=O)[C@@H]1CCCN1C(=O)[C@H](CO)NC(=O)[C@H](CCC(N)=O)NC(=O)[C@H](Cc1ccccc1)NC(=O)[C@H](CCC(=O)O)NC(=O)[C@H](CCC(=O)O)NC(=O)[C@H](CC(=O)O)NC(=O)[C@@H](NC(=O)[C@H](CCCNC(=N)N)NC(=O)[C@@H](N)Cc1ccccc1)C(C)C)C(N)=O [Agonist Q] (H-FRVDEEFQSPFASQSRGFWLFRPR[dNle]-NH2) | 89 | 97 | – | – | – | –
3 | CCN1C(=O)CC(SC[C@H](NC(C)=O)C(=O)NCC(=O)N[C@@H](Cc2ccc(O)cc2)C(=O)N[C@@H](Cc2ccccc2)C(=O)N[C@@H](CC(C)C)C(=O)N[C@@H](Cc2ccccc2)C(=O)N[C@@H](CCCNC(=N)N)C(=O)N2CCC[C@H]2C(=O)N[C@@H](CCCNC(=N)N)C(=O)N[C@@H](CC(N)=O)C(N)=O)C1=O (stereo partly drawn) [NMU6] (Ac-C(Succinimide(1-Et,3-yl))GYFLFRPRN-NH2) | – | – | – | – | – | % Activity (mouse NMUR2): 100%
4 | CCN1C(=O)CC(SC[C@H](NC(C)=O)C(=O)N[C@@H](Cc2ccccc2)C(=O)N[C@@H](CCCNC(=N)N)C(=O)N[C@H](C(=O)N[C@@H](CC(=O)O)C(=O)N[C@@H](CCC(=O)O)C(=O)N[C@@H](CCC(=O)O)C(=O)N[C@@H](Cc2ccccc2)C(=O)N[C@@H](CCC(N)=O)C(=O)N[C@@H](CO)C(=O)N2CCC[C@H]2C(=O)N[C@@H](Cc2ccccc2)C(=O)N[C@@H](C)C(=O)N[C@@H](CO)C(=O)N[C@@H](CCC(N)=O)C(=O)N[C@@H](CO)C(=O)N[C@@H](CCCNC(=N)N)C(=O)NCC(=O)N[C@@H](Cc2ccc(O)cc2)C(=O)N[C@@H](Cc2ccccc2)C(=O)N[C@@H](CC(C)C)C(=O)N[C@@H](Cc2ccccc2)C(=O)N[C@@H](CCCNC(=N)N)C(=O)N2CCC[C@H]2C(=O)N[C@@H](CCCNC(=N)N)C(=O)N[C@@H](CC(N)=O)C(N)=O)C(C)C)C1=O (stereo partly drawn) [NMU8] (Ac-C(Succinimide(1-Et,3-yl))FRVDEEFQSPFASQSRGYFLFRPRN-NH2) | – | – | – | – | – | % Activity (mouse NMUR2): 100%
5 | CC(=O)N[C@@H](CSCC(=O)O[C@H]1CC[C@@]2(C)C(=CC[C@H]3[C@@H]4CC[C@H]([C@H](C)CCCC(C)C)[C@@]4(C)CC[C@@H]32)C1)C(=O)NCC(=O)N[C@@H](Cc1ccc(O)cc1)C(=O)N[C@@H](Cc1ccccc1)C(=O)N[C@@H](CC(C)C)C(=O)N[C@@H](Cc1ccccc1)C(=O)N[C@@H](CCCNC(=N)N)C(=O)N1CCC[C@H]1C(=O)N[C@@H](CCCNC(=N)N)C(=O)N[C@@H](CC(N)=O)C(N)=O [NMU11] (Ac-C(X1)GYFLFRPRN-NH2) | – | – | – | – | – | % Activity (mouse NMUR2): 70.5%
6 | CC(C)C[C@H](NC(=O)[C@H](Cc1ccccc1)NC(=O)[C@@H](N)Cc1ccc(O)cc1)C(=O)N[C@@H](Cc1ccccc1)C(=O)N[C@@H](CCCNC(=N)N)C(=O)N1CCC[C@H]1C(=O)N[C@@H](CCCNC(=N)N)C(=O)N[C@@H](CC(N)=O)C(N)=O [NMU-8, reference compound] | 100 | 104 | – | – | – | –
7 | Ac-FFRPRN-NH2 [Agonist F, Ac-FFRPRN-CONH2] | – | – | 12 | 96 | 870 | IC50 (hNMUR2 [1]; Table 8, HEK-hR2, binding): > 1000 nM
8 | FALFRPRN-NH2 [Agonist N] | 100 | 100 | – | – | – | –
9 | H-FRVDEEFQSPFASQSRGYFWRPRN-NH2 [Agonist G] | – | – | 33 | 14 | > 1000 | –
10 | H-FWLFRARN-NH2 [Agonist L] | 100 | 100 | – | – | – | –
11 | H-YFGWRPRN-NH2 [Agonist C] | – | – | 0 | 0 | > 1000 | IC50 (hNMUR2 [1]; Table 8, HEK-hR2, binding): > 1000 nM
12 | WALFRARN-NH2 [Agonist M] | 71 | 93 | – | – | – | IC50 (hNMUR2 [1]; Table 9, HEK-hR2, binding): 180 nM; EC50 (hNMUR2 [2]; Table 9, HEK-hR2, functional): 33 nM
13 | YFWRPRN-NH2 [Agonist A, YFWRPRN-CONH2] | – | – | 0 | 0 | > 1000 | IC50 (hNMUR2 [1]; Table 8, HEK-hR2, binding): > 1000 nM
